# “And” between values parts separate entries of the source, which are not always exact repeats. Identical values can stand only once. “Also recorded” adds a separate entry of the source. Like-named read-outs stand apart in the source and are kept apart here.
# How the values were obtained:
# lipoxin transport system [1] = assay: [3H]LXA4 influx into human neutrophils (unidirectional tracer flux); details: for [3H]LXA4 Influx in presence of eicosanoid / IC50: uptake at 10 and 20 min; for initial [3H]LXA4 influx rate in presence of drug: 5 nM LXA4; for effect on uptake of [3H]LXA4: each at 0.2-0.5 mM; for IC50: read-out: K0.5, concentration at which 50% of lipoxin transport is inhibited, drug 0-500 μM, Michaelis-Menten inhibition kinetics
# lipoxin transport system [2] = assay: Irreversible inhibition of [3H]LXA4 influx after pretreatment of neutrophils with sulfhydryl-reactive agents; type: cell-based, human
# lipoxin transport system [3] = details: not told
# human neutrophils [4] = assay: [3H]LXA4 methyl ester influx into human neutrophils; type: cell-based; details: for effect of drugs on [3H]LXA4 ME influx: DISA 0.5 mM, PCP 0.4 mM, mersalyl 0.5 mM
# Method: Incubations were performed at 37° C. in capped, plastic tubes (Falcon Plastics, Oxnard, Calif.) under various experimental conditions (neutrophils 15-20×10^6 /ml). […] At stated intervals, duplicate aliquots of the cell suspensions were layered onto 0.5 ml of silicone oil (Versilube F-5, General Electric Corp., Waterford, N.Y.) contained in 1.5 ml plastic tubes and centrifuged for 1 min at 8,000 g in a microcentrifuge (Beckman Instruments, Fullerton, Calif.).
# The aqueous and oil phases were aspirated and discarded. […] Influx is expressed here as fmol/10^6 cells/min whereas flux rates in all previous work from our laboratory (L.S.) have been reported in meq/liter of cell water.min.
# (§1) Influx rates were calculated by fitting the data points to a single exponential equation (Eq. 1). Results have been taken from three experiments based upon duplicate determinations. […] Specific binding was taken as the difference between total and non-specific binding. […] Results are from three separate experiments, each performed in triplicate.
# human neutrophils [5] = tested on: human neutrophils
# [6] = biological target: T1, specific lipoxin receptors (Homo sapiens, UniProt P25090); assay: [3H]LXA4 ligand binding to human neutrophils
# T1 sequence (P25090 1-351): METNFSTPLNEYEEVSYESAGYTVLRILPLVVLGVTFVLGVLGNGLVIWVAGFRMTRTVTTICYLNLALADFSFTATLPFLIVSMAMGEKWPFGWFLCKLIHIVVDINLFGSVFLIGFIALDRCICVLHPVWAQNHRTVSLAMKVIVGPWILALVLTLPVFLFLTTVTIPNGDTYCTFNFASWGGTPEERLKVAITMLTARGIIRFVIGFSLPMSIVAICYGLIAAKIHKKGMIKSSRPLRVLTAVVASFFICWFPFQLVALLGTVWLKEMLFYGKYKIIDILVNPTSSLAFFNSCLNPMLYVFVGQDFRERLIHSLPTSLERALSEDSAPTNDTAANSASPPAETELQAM
# Method: as §1
# [7] = combined: 0.5 mM DISA, 0.4 mM PCP, pHo 8.40
# [8] = combined: 0.5 mM mersalyl, pHo 6.40
compound,measurement,setting,value
CCCCCCCCCCCCCC(=O)O[C@@H]1[C@@H](C)[C@@]2(O)[C@@H](C=C(CO)C[C@@]3(O)C(=O)C(C)=C[C@@H]23)[C@@H]2C(C)(C)[C@]12OC(C)=O [4-α-PMA],effect on lipoxin uptake,lipoxin transport system [1]; biologically inactive isomer of PMA,no effect
"CCCCC[C@H](O)/C=C/C=C\C/C=C\C/C=C\CCCC(=O)O [15-HETE, (15S)-hydroxy-5,8,11-cis-13-trans-eicosatetraenoic acid]",[3H]LXA4 Influx in presence of eicosanoid,lipoxin transport system [1]; eicosanoid 10 nM,0.73 ± 0.05 fmol/10^6 cells/min
same,[3H]LXA4 Influx in presence of eicosanoid,lipoxin transport system [1]; eicosanoid 30 nM,0.69 ± 0.05 fmol/10^6 cells/min
same,[3H]LXA4 Influx in presence of eicosanoid,lipoxin transport system [1]; eicosanoid 100 nM,0.71 ± 0.06 fmol/10^6 cells/min
CNc1ccc2oc(C[C@H]3O[C@@]4(CC[C@H]3C)O[C@H]([C@H](C)C(=O)c3ccc[nH]3)[C@H](C)C[C@H]4C)nc2c1C(=O)O [A23187],enhancement of lipoxin uptake,lipoxin transport system [1]; 1 μM,~ 1.5 fold
"CCCCC/C=C\C/C=C\C/C=C\C/C=C\CCCC(=O)O [Arachidonic Acid, arachidonic acid]",[3H]LXA4 Influx in presence of eicosanoid,lipoxin transport system [1]; eicosanoid 10 nM,0.69 ± 0.03 fmol/10^6 cells/min
same,[3H]LXA4 Influx in presence of eicosanoid,lipoxin transport system [1]; eicosanoid 30 nM,0.66 ± 0.02 fmol/10^6 cells/min
same,[3H]LXA4 Influx in presence of eicosanoid,lipoxin transport system [1]; eicosanoid 100 nM,0.70 ± 0.02 fmol/10^6 cells/min
"O=C1OC2(c3ccc(N4C(=O)C=CC4=O)cc31)c1cc(Br)c(O)c(Br)c1Oc1c2cc(Br)c(O)c1Br [Eosin-5-maleimide, eosin-5-maleimide]",% Inhibition of Transport (irreversible),"lipoxin transport system [2]; 0.50 mM, pretreatment 30 min at 4° C., washed, influx at 37° C.",19 ± 6%
"CCCCC/C=C\C[C@@H](O)/C=C/C=C/C=C\[C@@H](O)CCCC(=O)O [LTB4, (5S,12R)-dihydroxy-6,14-cis-8,10-trans-eicosatetraenoic acid]",transport by the lipoxin transport system,lipoxin transport system [3],not transported
same,[3H]LXA4 Influx in presence of eicosanoid,lipoxin transport system [1]; eicosanoid 10 nM,0.67 ± 0.04 fmol/10^6 cells/min
same,[3H]LXA4 Influx in presence of eicosanoid,lipoxin transport system [1]; eicosanoid 30 nM,0.64 ± 0.04 fmol/10^6 cells/min
same,[3H]LXA4 Influx in presence of eicosanoid,lipoxin transport system [1]; eicosanoid 100 nM,0.70 ± 0.06 fmol/10^6 cells/min
"CCCCC/C=C\C\C=C/C=C/C=C/[C@@H](SC[C@H](NC(=O)CC[C@H](N)C(=O)O)C(=O)NCC(=O)O)[C@@H](O)CCCC(=O)O [LTC4, (5S)-hydroxy-(6R)-S-glutathionyl-7,9-trans-11,14-cis-eicosatetraenoic acid]",transport by the lipoxin transport system,lipoxin transport system [3],not transported
same,[3H]LXA4 Influx in presence of eicosanoid,lipoxin transport system [1]; eicosanoid 10 nM,0.70 ± 0.05 fmol/10^6 cells/min
same,[3H]LXA4 Influx in presence of eicosanoid,lipoxin transport system [1]; eicosanoid 30 nM,0.76 ± 0.05 fmol/10^6 cells/min
same,[3H]LXA4 Influx in presence of eicosanoid,lipoxin transport system [1]; eicosanoid 100 nM,0.78 ± 0.07 fmol/10^6 cells/min
"CCCCC/C=C\C\C=C/C=C/C=C/[C@@H](SC[C@H](N)C(=O)NCC(=O)O)[C@@H](O)CCCC(=O)O [LTD4, (5S)-hydroxy-(6R)-S-cysteinylglycyl-7,9-trans-11,14-ciseicosatetraenoic acid]",transport by the lipoxin transport system,lipoxin transport system [3],not transported
same,[3H]LXA4 Influx in presence of eicosanoid,lipoxin transport system [1]; eicosanoid 10 nM,0.63 ± 0.03 fmol/10^6 cells/min
same,[3H]LXA4 Influx in presence of eicosanoid,lipoxin transport system [1]; eicosanoid 30 nM,0.59 ± 0.04 fmol/10^6 cells/min
same,[3H]LXA4 Influx in presence of eicosanoid,lipoxin transport system [1]; eicosanoid 100 nM,0.61 ± 0.03 fmol/10^6 cells/min
"CCCCC[C@H](O)/C=C/C=C\C=C\C=C\[C@@H](O)[C@@H](O)CCCC(=O)OC [LXA4 ME, lipoxin A4 methyl ester]",[3H]LXA4 ME Influx,"human neutrophils [4]; Medium, 5 nM, 37° C., 15 s intervals through 1 min",535±136 fmol/10^6 cells/min
same,influx rate relative to LXA4 free acid,human neutrophils [4]; medium alone,"1,000 fold faster"
same,[3H]LXA4 ME Influx,human neutrophils [4]; pHo 6.40,465 ± 45 fmol/10^6 cells/min
same,[3H]LXA4 ME Influx,human neutrophils [4]; pHo 8.40,553 ± 129 fmol/10^6 cells/min
"Oc1c(Cl)c(Cl)c(Cl)c(Cl)c1Cl [PCP, pentachlorophenol]","efflux final value (relative cell content, combined data set)",human neutrophils [5]; [7],0.46±0.02
same,efflux rate coefficient (combined data set),human neutrophils [5]; [7],0.098 ± 0.008 min⁻¹
same,[3H]LXA4 ME Influx in presence of drug,human neutrophils [4]; 0.4 mM drug,439 ± 63 fmol/10^6 cells/min
same,effect of drugs on [3H]LXA4 ME influx,human neutrophils [4],completely resistant
same,inhibition of [3H]LXA4 influx,lipoxin transport system [1]; 0.4 mM drug,97% and > 80%
same,initial [3H]LXA4 influx rate in presence of drug,lipoxin transport system [1]; 0.4 mM drug,0.015±0.004 fmol/10^6 cells/min
same,effect on uptake of [3H]LXA4,lipoxin transport system [1],inhibited the uptake
same,IC50,lipoxin transport system [1],25 ± 5 µM
same,"[3H]LXA4 Binding, non-specific, in presence of drug",[6],0.36 ± 0.04 fmol/10^6 cells
same,"[3H]LXA4 Binding, total, in presence of drug",[6],1.18 ± 0.04 fmol/10^6 cells
same,effect on binding of lipoxin to specific receptors,[6],not inhibitable
"CCCCC[C@H](O)/C=C/[C@H]1[C@H](O)CC(=O)[C@@H]1C/C=C\CCCC(=O)O [PGE2, prostaglandin E2]",[3H]LXA4 Influx in presence of eicosanoid,lipoxin transport system [1]; eicosanoid 10 nM,0.58 ± 0.03 fmol/10^6 cells/min
same,[3H]LXA4 Influx in presence of eicosanoid,lipoxin transport system [1]; eicosanoid 30 nM,0.59 ± 0.03 fmol/10^6 cells/min
same,[3H]LXA4 Influx in presence of eicosanoid,lipoxin transport system [1]; eicosanoid 100 nM,0.60 ± 0.03 fmol/10^6 cells/min
"CCCCCCCCCCCCCC(=O)O[C@@H]1[C@@H](C)[C@@]2(O)[C@@H](C=C(CO)C[C@]3(O)C(=O)C(C)=C[C@@H]23)[C@@H]2C(C)(C)[C@]12OC(C)=O [PMA, phorbol myristate acetate]",increase in initial rate of [3H]LXA4 influx,lipoxin transport system [1]; 100 nM,~ 4 fold
"N#CC(=Cc1cn(-c2ccccc2)c2ccccc12)C(=O)O [UK-5099, α-cyano-β-(1-phenylindol-3-yl)acrylic acid]",inhibition of [3H]LXA4 influx,lipoxin transport system [1]; 0.2 mM drug,95%
same,initial [3H]LXA4 influx rate in presence of drug,lipoxin transport system [1]; 0.2 mM drug,0.030±0.009 fmol/10^6 cells/min
same,effect on uptake of [3H]LXA4,lipoxin transport system [1],inhibited the uptake
same,effect on binding of lipoxin to specific receptors,[6],not inhibitable
"O=C(O)c1ccccc1Nc1ccccc1 [diphenylamine-2-carboxylate, diphenylamine-2-carboxylic acid]",inhibition of [3H]LXA4 influx,lipoxin transport system [1]; 0.5 mM drug,> 85%
"O=C(O)CI [iodoacetate, iodoacetic acid]",effect of SH-reactive compounds on [3H]LXA4 influx,"lipoxin transport system [1]; 1 mM NEM, 0.4 mM iodoacetate",lacked efficacy; also recorded: do not inhibit
COC(CNC(=O)c1ccccc1OCC(=O)O)[CH2][Hg][OH] (centres unmarked) [mersalyl],% Inhibition of Transport (irreversible),lipoxin transport system [2],~ 65% and 67 ± 5%
same,"efflux final value (relative cell content, combined data)",human neutrophils [5]; [8],0.56±0.03
same,efflux rate coefficient (combined data),human neutrophils [5]; [8],0.079 ± 0.012 min⁻¹
same,[3H]LXA4 ME Influx in presence of drug,human neutrophils [4]; 0.5 mM drug,500 ± 184 fmol/10^6 cells/min
same,effect of drugs on [3H]LXA4 ME influx,human neutrophils [4],completely resistant
same,inhibition of [3H]LXA4 influx,lipoxin transport system [1]; 0.5 mM drug,82% and > 80%
same,initial [3H]LXA4 influx rate in presence of drug,lipoxin transport system [1]; 0.5 mM drug,0.10±0.01 fmol/10^6 cells/min
same,effect on uptake of [3H]LXA4,lipoxin transport system [1],inhibited the uptake
same,IC50,lipoxin transport system [1],112 ± 33 µM
same,effect on binding of lipoxin to specific receptors,[6],not inhibitable
same,"[3H]LXA4 Binding, non-specific, in presence of drug","[6]; 0.5 mM drug, + unlabeled LXA4 0.3 μM",0.39 ± 0.03 fmol/10^6 cells
same,"[3H]LXA4 Binding, total, in presence of drug","[6]; 0.5 mM drug, no unlabeled LXA4",1.13 ± 0.05 fmol/10^6 cells
"O=C(O)c1cccnc1Nc1cccc(C(F)(F)F)c1 [niflumate, niflumic acid]",inhibition of [3H]LXA4 influx,lipoxin transport system [1]; 0.2 mM drug,> 85%

# From patent US5750354A, “Lipoxin transport system and uses therefor” (priority 1994, dated 1998)
